Assay results as given in US20160370379A1, “BLOOD-BASED BIOMARKER FOR CANCER” (J-PHARMA CO., LTD., priority 2014, published 2016).

Assays:
[1] = system: gastric cancer cell line 44As3-11; test: Amino acid concentration in culture medium of gastric cancer cell line with LAT1 inhibitor added; type: cell-based; settings: 44As3-11 culture, inhibitor added at each concentration, medium collected 0-97 hrs (FIG. 2b)
Method: (§1) Each of the cancer cell lines 44As3-11 (gastric cancer cell line), T3M-4 (pancreas cancer cell line), and MIAPaCa-2 (pancreas cancer cell line) was used. By using a 6 well plate, culture was performed at 37° C. with 5×10^4 cells in 3 mL (10% FBS, L-Glu+PS in RPMI1640). The culture medium was collected at 0, 24, 48, 72, and 97 hrs and centrifuged at 1,000 rpm. The supernatant (1.0 mL) was then stored in a deep freezer (−80° C.) during a period until determination. Eight kinds of amino acids (including phenylalanine in addition to the aforementioned histidine, isoleucine, leucine, methionine, tryptophan, valine, and tyrosine) were measured by mass analysis. Each culture was performed in triplet and, by measuring the sample, the concentration of each amino acid was represented as mean value±standard deviation, and then compared among the groups. Furthermore, after adding an anticancer agent (O-(5-amino-2-phenylbenzoxazol-7-yl)methyl-3,5-dichloro-L-tyrosine) at each concentration to the culture medium, the property of inhibiting the decrease in amino acid concentration in the culture medium was observed.
(§2) 3) As for the statistical processing, Mann-Whitney U test was used for comparison between two groups, and those having a risk ratio of 0.05 or less were determined to be a significant difference.

[2] = system: pancreas cancer cell line T3M-4; test: Amino acid concentration in culture medium of pancreas cancer cell line with LAT1 inhibitor added; type: cell-based; settings: T3M-4 culture, inhibitor added at each concentration, medium collected 0-97 hrs (FIG. 3b)
Method: as §1, §2

LAT1 = target: T1, LAT1 (Homo sapiens, UniProt Q01650); test: Free amino acid concentration in blood serum of cancer patients at BSC stage administered inhibitor agent; type: in vivo
T1 construct: from tissue; host or cells: Solid tumours (pancreas, colon, gall bladder cancer with metastases) in living patients
T1 sequence (Q01650 whole entry): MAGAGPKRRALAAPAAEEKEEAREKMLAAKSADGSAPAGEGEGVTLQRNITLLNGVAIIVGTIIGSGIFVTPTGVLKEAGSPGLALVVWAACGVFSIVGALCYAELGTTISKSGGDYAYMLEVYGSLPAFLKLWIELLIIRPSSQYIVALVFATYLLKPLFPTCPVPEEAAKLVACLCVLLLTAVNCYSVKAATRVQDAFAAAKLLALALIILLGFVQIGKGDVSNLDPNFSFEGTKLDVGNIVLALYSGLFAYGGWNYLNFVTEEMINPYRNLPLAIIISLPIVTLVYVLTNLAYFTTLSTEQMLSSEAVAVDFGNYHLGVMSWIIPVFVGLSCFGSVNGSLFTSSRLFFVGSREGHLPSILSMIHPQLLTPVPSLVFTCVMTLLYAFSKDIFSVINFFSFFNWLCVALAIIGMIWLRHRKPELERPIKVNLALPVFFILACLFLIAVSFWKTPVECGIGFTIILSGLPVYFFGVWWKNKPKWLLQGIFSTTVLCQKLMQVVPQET
T1 sequence (P08195 102-630 partner): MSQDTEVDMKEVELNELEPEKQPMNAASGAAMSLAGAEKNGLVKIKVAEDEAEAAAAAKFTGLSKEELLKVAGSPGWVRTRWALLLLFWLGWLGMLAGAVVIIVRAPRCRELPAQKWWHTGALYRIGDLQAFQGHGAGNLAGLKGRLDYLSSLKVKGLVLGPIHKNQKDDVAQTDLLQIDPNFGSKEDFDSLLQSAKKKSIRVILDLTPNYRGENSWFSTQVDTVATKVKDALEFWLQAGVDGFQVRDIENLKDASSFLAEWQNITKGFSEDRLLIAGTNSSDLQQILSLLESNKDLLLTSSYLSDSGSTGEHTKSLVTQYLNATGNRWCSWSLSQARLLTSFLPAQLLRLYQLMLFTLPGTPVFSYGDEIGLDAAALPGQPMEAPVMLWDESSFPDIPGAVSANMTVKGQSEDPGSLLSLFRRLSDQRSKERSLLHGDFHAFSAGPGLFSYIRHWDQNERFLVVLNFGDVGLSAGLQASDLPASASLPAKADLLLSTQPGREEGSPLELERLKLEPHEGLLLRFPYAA
Method: Immediately after collecting blood from patients having gastric cancer [100 samples, average age (lowest value-highest value) 66.1 (31 to 89 years old), sex ratio 72:28], pancreas cancer [27, 70.3 (56 to 81) 13:14], or bile duct cancer [6, 70.5 (68 to 75) 5:1] and healthy control with no cancer [12, 50.8 (29 to 73) 11:1], blood serum was isolated and stored in a deep freezer (−80° C.) during a period until determination. The concentration of seven types of amino acids (histidine, isoleucine, leucine, methionine, tryptophan, valine, and tyrosine) was measured by mass analysis, and the measurement result was compared to the value obtained from blood of a healthy control. The concentration of each amino acid was represented as relative value of each case, with the mean value from the healthy control being 100%. The percentage was compared between the cancer patient and healthy control.
A predetermined clinical test (test and experiment) was registered with an administration bureau, and after obtaining an approval of the institutional review board (IRB) of a site management organization, patients were selected and blood serum for analysis was collected, stored, and analyzed. The patient as a subject carried solid tumors for which standard treatments for cancer are ineffective or are intolerable, and they were in a state generally referred to as a BSC stage. […]

## Nc1cc(COc2c(Cl)cc(C[C@H](N)C(=O)O)cc2Cl)c2oc(-c3ccccc3)nc2c1 [LAT1 inhibitor, O-(5-amino-2-phenylbenzoxazol-7-yl)methyl-3,5-dichloro-L-tyrosine]
[1]
  inhibition of the decrease in concentration of eight amino acids in the culture medium: property of inhibiting amino acid decrease in a pharmaceutical concentration dependent manner was shown
[2]
  inhibition of the decrease in concentration of eight amino acids in the culture medium: property of inhibiting amino acid decrease in a pharmaceutical concentration dependent manner was shown
LAT1; patients at BSC stage, 12 mg/m^2/day, 25.5 hours after start of single administration (FIGS. 4a, 4b)
  concentration of each amino acid in blood serum after single administration versus before administration: higher than the value before the administration
LAT1; subjects 102 and 104, healthy control mean = 100, Student's t test (FIG. 4c)
  relative blood concentration of eight amino acids before versus after single administration: significant difference between cases before and after the single administration
